Source: patent US20260248831A1, “NON-TUBERCULOSIS MYCOBACTERIA INFECTION TREATMENT” (AN2 Therapeutics, Inc., priority 2021, published 2026)
Structures can show the parent of a compound that is named as a salt.

Legend:
MAC strains = assay: Checkerboard synergy testing, summary over the MAC strains tested; format: cell-based, Mycobacterium avium complex; settings: out of a total of 5 MAC strains tested
[1] = system: M. intracellulare 20-S-13; assay: Checkerboard antibacterial synergy testing of EBO pairwise combinations; format: cell-based; settings: M. intracellulare 20-S-13, clarithromycin resistant strain
Description: Frozen stocks of the drugs were prepared at 5 or 2 mg/ml and frozen in aliquots at −20° C. On the day of the experiment the stocks were thawed and diluted to the appropriate concentration. Middlebrook 7H9 broth and agar, CA-MH agar and Middlebrook OADC were all purchased from Becton-Dickinson and Company (Sparks, MD).
M. avium 2285R (Verma et al. Microbiol (2019) 10: 693) and M intracellulare DNA000111 were obtained from Diane Ordway (Colorado State University, Fort Collins, CO). M. chimaera 20-S-05 and the macrolide/bedaquiline-resistant M. intracellulare 20-S-13 isolate were obtained from Barbara Brown-Elliott (Mycobacteria/Nocardia Research Laboratory, University of Texas Health Science Center, Tyler Tx). […]
The checkerboard methodology was used to test for synergy and antagonism using Middlebrook 7H9+5% OADC (Dubos et al. Am Rev Tuberc (1947) 56:334-45) as the microbiology growth media. […] Synergistic or antagonistic activity was determined using the sum of the fractional inhibitory concentration (ΣFIC) index. The FTC index is calculated as the sum of FTC A+FTC B, where FTC A is the MIC of drug A in the combination of drugs A and B divided by the MIC of drug A alone, plus the MIC of drug B in the combination of drugs A and B divided by the MIC of drug B alone. […]

[2] = in vivo; cited from earlier work
NTM strains = assay: Checkerboard synergy testing, summary over all strains tested; format: cell-based, nontuberculous mycobacteria; settings: clarithromycin, ethambutol, rifabutin, amikacin, bedaquiline

CC[C@@H](CO)NCCN[C@@H](CC)CO [EMB, Ethambutol]
Synergy/additivity with EBO, number of strains (MAC strains): synergy was observed with 2 strains and additivity with an additional 2 strains | Interaction between ethambutol and EBO (in words) [1]: indifference

NC[C@H]1OB(O)c2c(OCCCO)cccc21 [epetraborole, Epetraborole]
Course of hematological abnormalities [2]: return to baseline values after discontinuation of epetraborole | RBC parameters (including hemoglobin, RBCs, and reticulocyte counts) [2]: Decreases in RBC parameters

NC[C@H]1OB(O)c2c(OCCCO)cccc21 [EBO, epetraborole hydrochloride]
Antagonism of EBO activity by second drug (NTM strains): not antagonized
